This is an account of results in US4279926A, “Method of relieving pain and treating inflammatory conditions in warm-blooded animals” (priority 1974, dated 1981).

Converted amounts (≈) assume the structure as drawn. “And” between values parts separate entries of the source, which are not always exact repeats. Identical values can stand only once. Counter-ions that a name gives are not always drawn. Like-named read-outs stand apart in the source and are kept apart here. A value given as a limit tells only on which side of the number the result lay.

For data set [1], the system named is patients with degenerative osteoarticular affections. Nature of the data set: Clinical trial, i.m. 500 mg/day, efficacy in degenerative osteoarticular diseases. Format: in vivo, human. An excerpt:
In a subsequent clinical trial, 33 human subjects were used with an average age of 73.8±6.8, the minimum age being 61 and the maximum age 88; 7 of the subjects were males and the remaining 26 were female.
These subjects presented osteoarticular diseases of a chronic or subacute type, in which, during the period of observation, an evolutive flare-up of a pre-existing mono- or polyarticular arthrosic process was verified, as well as the appearance ex novo of an arthralgic picture with functional impotence of the osteoarticular segments which previously appeared to be undamaged.
In these cases, the parenteral route of administration was used so as to obtain, in view of the watersoluble characteristics of the test material, a more rapid symptomatic control. Furthermore, this method of administration permits a ready control of any differences in gastric tolerance as compared with the oral administration route, which is more commonly used.
The test substance was injected in the morning between 8 and 8.30 a.m. Before starting the therapy, midway through it and immediately after it, the following parameters were controlled in order to ascertain how effective the treatment had been: Lansbury's dynamometer (the values of muscular strength were expressed in kg.); the range of articular flexion and extension (the basal finding was expressed conventionally with the notations "+" to "+++," the successive findings being assessed as "unchanged," "increased" or "decreased," compared with the pre-treatment findings; subjective algesic symptomatology, the criteria of evaluation being similar to those adopted for determining the range of articular flexion and extension; finger tip-floor distance test, obtained by measuring the distance between the tips of the fingers and the floor when the subject bends forward; and morning stiffness, this being the time taken for the disappearance of stiffness on awakening.
Thus, for the evaluation of the test substance, it was thus possible to have 3 quantitative parameters (morning stiffness, Lansbury's index and finger tip-floor distance) and 2 semiquantitative parameters (pain symptomatology and flexo-extension strength). This is sufficient to obtain a reliable therapeutic profile in the test subjects, where the subjective element plays a predominant role in determining the clinical picture, as well as the therapeutic response.
The numerical data obtained were analysed statistically by means of the calculation of the Student "t" test on the mean values found before and after treatment.

The nature of a further data set: Solubility. Format: physicochemical.
The next data set can be described thus: pH of aqueous solution. Format: physicochemical.
For data set [2] the following is noted: total mean values, especially during the first 3 hours.
Description: The blood levels were then determined after 0.5, 1, 1.5, 2, 3, 4 and 5 hours.
Another data set concerns occult blood in faeces. The experiment in a line: Occult blood in faeces (benzidine test). It counts as in vivo, human. The method, then:
In cases with a history of gastroenteric disorders, even if not drug-dependent, the faeces were tested for the presence of occult blood, using the benzidine test.

A further data set in a line: Stability. The settings on record: salt or its aqueous solution.
The test system of data set [3] is carrageenin oedema, inflamed paw. The experiment in a line: Carrageenin oedema of the rat paw (anti-inflammatory action, paw size/volume). It counts as in vivo, male Wistar rats. The settings on record: Table 2, 100 mg/kg p.o. (lysine salt: 60 as active substance). Background: In the carrageenan paw model, swelling and tenderness develop within hours.
Data set [4] has as its system pain threshold in the inflamed paw (carrageenin oedema). Nature of the data set: Pain threshold under pressure of the inflamed (carrageenin) rat paw (analgesic action). The conditions noted are these: Table 3, 100 mg/kg p.o. (lysine salt: 60 as active substance).
Description: At intervals after the treatment, the size of the treated paw and its sensitivity to pain under pressure were evaluated.
The next data set has as its system gastro-intestinal mucosa. The settings on record: cited from earlier work.
Setting [5] is: of 18 cases with major initial involvement.
Where [6] appears, read: end of experiment, of 14 positive before treatment.

Consider `CC(C)Cc1ccc(C(C)C(=O)O)cc1` (racemic) [Example 1], for which, in [1] (33 patients, i.m. 500 mg/day), the “Cases with increase of flexo-extension strength” value came to 36.3%, the “Cases with spontaneous pain reduced following treatment” value stood at 27 cases and the “Cases with spontaneous pain reduced following treatment (%)” value was 81.8%. Further, the “Morning stiffness, mean after treatment” value in data set [1] (Table 7, after i.m. 500 mg/day, s.d. ± 8.2) was 18.93 min. Besides, the “Morning stiffness, mean before treatment” value in data set [1] (Table 7, before treatment (baseline), s.d. ± 6.62) was determined as 20.17 min. In addition, in data set [1] (Table 7, before treatment (baseline), s.d. ± 9.19), the “Lansbury test, mean before treatment” value was 30.96 kg. The “Fingertip-floor distance, mean before treatment” value in [1] (Table 7, before treatment (baseline), s.d. ± 12.4) was 33.17 cm. Besides, in [1] (Table 7, i.m. 500 mg/day, individual patients in order of case no. (cases 7, 8, 9, 14, 27-31, 33 not given), listed as lysine isobutylphenyl propionate), the “Fingertip-floor distance, after treatment” value is 45 cm and 40 cm and 30 cm and 28 cm and 15 cm and 11 cm and 6 cm and 20 cm and 24 cm and 48 cm and 38 cm and 18 cm and 46 cm and 35 cm. In [1] (Table 7, i.m. 500 mg/day, individual patients in order of case no. (cases 8, 9, 14, 26 not given), listed as lysine isobutylphenyl propionate), the “Morning stiffness, after treatment” value is 30 min and 10 min and 0 min and 8 min and 2 min and 12 min and 25 min and 15 min and 11 min and 5 min and 9 min and 23 min and 18 min and 22 min and 20 min. Also, the Radiologic changes result in data set [1] (after treatment vs before) was “no radiologic changes”. In data set [1] (i.m. 500 mg/day), the “Lansbury test, pre- vs post-treatment mean values” is on record as “similar”; the “Overall safety and clinical efficacy” value is “safe and clinically effective”. In addition, the “P, difference between pre- and post-treatment duration of morning stiffness” value in [1] (i.m. 500 mg/day, Student t test) is less than 0.01. In [1] (i.m. 500 mg/day, of 33), the “Patients with "excellent" effect” value was found to be 25 patients, the “Patients with "fair" result” value is listed as 4 patients and the “Patients with "poor" or "nil" effect” value is listed as 4 patients. In addition, in data set [1] (setting [5]), the “Patients with marked improvement of flexo-extension strength” value is reported as 10 patients and the “Patients with marked improvement of flexo-extension strength (%)” value came out at 55.5%. The compound further yielded a solubility in “Solubility” (in water) of approximately 400 mg/mL (≈ 1940 mM). Also, the “pH of aqueous solution” value in the data set “pH of aqueous solution” is “substantially neutral pH”. Further, in data set [2], the “Blood levels compared with oral sodium salt” value is reported as “higher blood levels are always obtained, especially during the first 3 hours, than after the oral administration of the sodium salt”. The “Anaemia in blood counts” value in the data set with occult blood in faeces (end of experiment) is “did not reveal any cases of anaemia which could be considered pathological or at the most suspect”. Further, in the data set on occult blood in faeces (setting [6]), the “Faecal occult blood: haematic loss disappeared” value is reported as 1 case, the “Faecal occult blood: haematic loss reduced” value came out at 6 cases, the “Faecal occult blood: haematic loss slightly increased” value is reported as 2 cases and the “Faecal occult blood: haematic loss unchanged” value is 5 cases. For the same compound, the “Faecal occult blood positive in pretreatment phase” value in the data set with occult blood in faeces (pretreatment (baseline)) was found to be 14 subjects.
For the compound `CC(C)Cc1ccc(C(C)C(=O)O)cc1` (racemic) [Example 8, D,L-arginine salt of 2-(4-isobutylphenyl)-propionic acid], the “Solubility in water” value in the data set “Solubility” is reported as “moderately soluble in water”. The “pH of aqueous solution” value in “pH of aqueous solution” is reported as “pH close to neutrality”.
Turning to `CC(C)Cc1ccc(C(C)C(=O)O)cc1` (stereo not shown) [Example 9], in the data set “Solubility”, the “Solubility in water” value is given as “analogous to those of the product obtained in Example 8”. In addition, the “pH of aqueous solution” value in the data set “pH of aqueous solution” is given as “analogous to those of the product obtained in Example 8”.
On to `CC(C)Cc1ccc(CC(=O)O)cc1` [Example 14, D,L-arginine salt of 2-(4-isobutyl-phenyl)-acetic acid], for which the “Solubility in water” value in the data set “Solubility” is “moderately soluble in water”. In addition, in the data set “pH of aqueous solution”, the “pH of aqueous solution” value is listed as “pH close to neutrality”. Further, the “Stability” value in the data set “Stability” was “stable solution”.
`CCCCC1C(=O)N(c2ccccc2)N(c2ccccc2)C1=O` [Phenyl-butazone, phenylbutazone]: the “Paw volume - carrageenin oedema” value in data set [3] (0 hrs, control 1.16 ± 0.02) worked out at 1.18 ± 0.02 mL; in data set [3] (4 hrs, control 2.29 ± 0.05, **p = 0.01), 1.75 ± 0.05 mL; in data set [3] (5 hrs, control 2.36 ± 0.06, **p = 0.01), 1.84 ± 0.05 mL. Moreover, the “Paw volume, % variation referred to control” value in data set [3] (3 hrs) is reported as -25.4%; in data set [3] (4 hrs), -23.6%; in [3] (5 hrs), -22.0%. Further, the “Pain threshold - carrageenin oedema” value in [4] (0 hrs, control 101.7 ± 3.19) turned out to be 105.3 ± 3.03 g; in data set [4] (3 hrs, control 52.7 ± 2.00, **p = 0.01) it was 122.7 ± 2.92 g; in data set [4] (5 hrs, control 51.3 ± 2.15, **p = 0.01), 83.7 ± 4.04 g. Further, the “Undesired side-effects (gastro-intestinal intolerance, ulceration) compared with phenyl-alkanoic acids” value with gastro-intestinal mucosa (known from the art) was “also show these undesired side-effects in an even more pronounced form”.
Regarding `CC(=O)Oc1ccccc1C(=O)O` [aspirin], in the data set with gastro-intestinal mucosa (in vivo), the “Undesired side-effects (gastro-intestinal intolerance, ulceration) compared with phenyl-alkanoic acids” value was “also show these undesired side-effects in an even more pronounced form”.
As for `COc1ccc2c(c1)c(CC(=O)O)c(C)n2C(=O)c1ccc(Cl)cc1` [indomethacine], the “Undesired side-effects (gastro-intestinal intolerance, ulceration) compared with phenyl-alkanoic acids” value in the data set on gastro-intestinal mucosa (known from the art) is “also show these undesired side-effects in an even more pronounced form”.

The term solubility denotes the dissolved amount per volume that the medium holds. Lower therefore signals a poorly soluble substance.
